Measured values: ChEMBL document CHEMBL5244229, “Thiazole-containing compounds as therapeutic targets for cancer therapy” (Eur J Med Chem, 2020)
≈ marks a conversion by molar mass, not a printed value. Values belong to the compound of their own block, whether it stands above or below them.

Legend:
MV4-11 [1] = test: Anticancer activity against human MV4-11 cells; type: functional, cell-based
HCT-116 [2] = test: Anticancer activity against human HCT-116 cells; type: functional, cell-based
MCF7 [3] = test: Antiproliferative activity against human MCF7 cells assessed as reduction in cell viability incubated for 24 hrs by Celltiter-Glo cell viability assay; type: functional, cell-based; settings: MCF7, 24 h
[4] = Antiproliferative activity against human SK-RC-52 cells assessed as reduction in cell viability incubated for 4 days by MTT assay; type: functional, cell-based; settings: SK-RC-52, 96 h
SW-620 = test: Antiproliferative activity against human SW620 cells assessed as reduction in cell viability incubated for 4 days by MTT assay; type: functional, cell-based; settings: SW-620, 96 h
A549 [5] = test: Antiproliferative activity against human A549 cells assessed as reduction in cell viability incubated for 4 days by MTT assay; type: functional, cell-based; settings: A549, 96 h
HepG2 [6] = test: Antiproliferative activity against human HepG2 cells assessed as reduction in cell viability incubated for 4 days by MTT assay; type: functional, cell-based; settings: HepG2, 96 h
A-431 = test: Antiproliferative activity against human A-431 cells assessed as reduction in cell viability incubated for 4 days by MTT assay; type: functional, cell-based; settings: A-431, 96 h
MCF7 [7] = test: Cytotoxicity against human MCF7 cells assessed as inhibition of cell growth; type: functional
NCI-H460 [8] = test: Cytotoxicity against human NCI-H460 cells assessed as inhibition of cell growth; type: functional
SF-268 = test: Cytotoxicity against human SF-268 cells assessed as inhibition of cell growth; type: functional
HCT-116 [9] = test: Antiproliferative activity against human HCT-116 cells assessed as reduction in cell viability incubated for 24 hrs by Celltiter-Glo cell viability assay; type: functional, cell-based; settings: HCT-116, 24 h
MV4-11 [10] = test: Antiproliferative activity against human MV4-11 cells assessed as reduction in cell viability incubated for 24 hrs by Celltiter-Glo cell viability assay; type: functional, cell-based; settings: MV4-11, 24 h
BALB/3T3 = test: Antiproliferative activity against mouse BALB/3T3 cells assessed as reduction in cell viability incubated for 24 hrs by Celltiter-Glo cell viability assay; type: functional, cell-based; settings: BALB/3T3, 24 h
HCT-116 [11] = test: Antiproliferative activity against human HCT-116 cells assessed as reduction in cell viability; type: functional, cell-based
A549 [12] = test: Antiproliferative activity against human A549 cells; type: functional, cell-based
HEK293 = test: Antiproliferative activity against human HEK293 cells; type: functional
[13] = Antiproliferative activity against human HLF cells; type: functional
A549 [14] = test: Antiproliferative activity against human A549 cells assessed as reduction in cell viability; type: functional, cell-based
Tubulin = Tubulin (Bos taurus, UniProt Q6B856+Q862L2+Q862F3); test: Antitubulin activity against bovine brain tubulin polymerization by spectrophotometric method
Colon 26 [15] = test: Cytotoxicity against mouse Colon 26 cells assessed as inhibition of cell growth; type: functional, cell-based
Colon 26 [16] = test: Antitumor activity against mouse Colon 26 cells xenografted in mouse assessed as tumor suppression rate at 40 mg/kg, po; type: functional
HepG2 [17] = test: Anticancer activity against human HepG2 cells assessed as inhibition of cell proliferation at 25 uM measured after 24 hrs by MTT assay; type: functional, cell-based; settings: HepG2, 24 h
MCF7 [18] = test: Cytotoxicity against human MCF7 cells; type: functional, cell-based
MG-63 = test: Cytotoxicity against human MG-63 cells; type: functional, cell-based
HeLa [19] = test: Cytotoxicity against human HeLa cells; type: functional, cell-based
[20] = Cytotoxicity against human HPDE cells assessed as induction of cell death at 5.51 uM; type: functional
A549 [21] = test: Cytotoxicity against human A549 cells assessed as inhibition of cell growth by MTT assay; type: functional, cell-based
MCF7 [22] = test: Cytotoxicity against human MCF7 cells assessed as reduction in cell viability by MTT assay; type: functional, cell-based
MDA-MB-231 [23] = test: Cytotoxicity against human MDA-MB-231 cells assessed as reduction in cell viability by MTT assay; type: functional, cell-based
HCT-116 [24] = test: Cytotoxicity against human HCT-116 cells assessed as reduction in cell viability by MTT assay; type: functional, cell-based
HeLa [25] = test: Cytotoxicity against human HeLa cells assessed as reduction in cell viability by MTT assay; type: functional, cell-based
[26] = molecular target: Epidermal growth factor receptor (Homo sapiens, UniProt P00533); test: Inhibition of EGFR (unknown origin)
Epidermal growth factor receptor, sequence (P00533 whole entry): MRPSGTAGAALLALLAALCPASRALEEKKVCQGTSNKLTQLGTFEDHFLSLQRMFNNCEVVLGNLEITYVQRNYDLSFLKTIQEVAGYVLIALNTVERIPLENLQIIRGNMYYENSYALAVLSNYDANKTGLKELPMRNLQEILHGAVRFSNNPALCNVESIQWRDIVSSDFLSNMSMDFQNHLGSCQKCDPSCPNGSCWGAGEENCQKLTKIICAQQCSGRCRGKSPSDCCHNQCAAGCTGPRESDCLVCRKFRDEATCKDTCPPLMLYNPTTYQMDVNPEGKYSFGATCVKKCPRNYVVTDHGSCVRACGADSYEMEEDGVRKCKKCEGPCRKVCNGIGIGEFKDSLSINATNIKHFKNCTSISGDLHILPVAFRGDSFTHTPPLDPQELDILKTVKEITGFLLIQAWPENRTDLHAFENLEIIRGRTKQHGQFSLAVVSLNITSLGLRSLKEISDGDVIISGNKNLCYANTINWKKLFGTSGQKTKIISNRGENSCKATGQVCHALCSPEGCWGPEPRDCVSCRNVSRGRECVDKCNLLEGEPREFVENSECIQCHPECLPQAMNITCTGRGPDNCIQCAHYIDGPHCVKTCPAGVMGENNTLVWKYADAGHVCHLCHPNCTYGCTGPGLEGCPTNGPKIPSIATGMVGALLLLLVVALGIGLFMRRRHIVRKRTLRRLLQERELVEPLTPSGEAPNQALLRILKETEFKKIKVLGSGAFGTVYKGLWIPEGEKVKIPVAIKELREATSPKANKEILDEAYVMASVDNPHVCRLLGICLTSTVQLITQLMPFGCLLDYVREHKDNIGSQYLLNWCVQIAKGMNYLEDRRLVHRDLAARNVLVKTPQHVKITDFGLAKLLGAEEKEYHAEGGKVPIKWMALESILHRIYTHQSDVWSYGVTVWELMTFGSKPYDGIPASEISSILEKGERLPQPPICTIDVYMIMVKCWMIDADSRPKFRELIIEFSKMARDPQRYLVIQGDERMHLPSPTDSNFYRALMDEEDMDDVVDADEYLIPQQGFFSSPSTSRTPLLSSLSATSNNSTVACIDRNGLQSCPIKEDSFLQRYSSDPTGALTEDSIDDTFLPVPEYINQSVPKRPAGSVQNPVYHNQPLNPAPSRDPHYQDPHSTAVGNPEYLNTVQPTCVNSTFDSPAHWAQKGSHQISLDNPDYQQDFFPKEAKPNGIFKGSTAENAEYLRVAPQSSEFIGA

[27] = molecular target: Vascular endothelial growth factor receptor 2 (Homo sapiens) (UniProt P35968); test: Inhibition of VEGFR2 (unknown origin) at 20 uM using 5-FAM-KKKKEEIYFFF-CONH2 as substrate incubated for 1 hr in presence of ATP by kinase glo-assay relative to control
Vascular endothelial growth factor receptor 2 (Homo sapiens), sequence (P35968 whole entry): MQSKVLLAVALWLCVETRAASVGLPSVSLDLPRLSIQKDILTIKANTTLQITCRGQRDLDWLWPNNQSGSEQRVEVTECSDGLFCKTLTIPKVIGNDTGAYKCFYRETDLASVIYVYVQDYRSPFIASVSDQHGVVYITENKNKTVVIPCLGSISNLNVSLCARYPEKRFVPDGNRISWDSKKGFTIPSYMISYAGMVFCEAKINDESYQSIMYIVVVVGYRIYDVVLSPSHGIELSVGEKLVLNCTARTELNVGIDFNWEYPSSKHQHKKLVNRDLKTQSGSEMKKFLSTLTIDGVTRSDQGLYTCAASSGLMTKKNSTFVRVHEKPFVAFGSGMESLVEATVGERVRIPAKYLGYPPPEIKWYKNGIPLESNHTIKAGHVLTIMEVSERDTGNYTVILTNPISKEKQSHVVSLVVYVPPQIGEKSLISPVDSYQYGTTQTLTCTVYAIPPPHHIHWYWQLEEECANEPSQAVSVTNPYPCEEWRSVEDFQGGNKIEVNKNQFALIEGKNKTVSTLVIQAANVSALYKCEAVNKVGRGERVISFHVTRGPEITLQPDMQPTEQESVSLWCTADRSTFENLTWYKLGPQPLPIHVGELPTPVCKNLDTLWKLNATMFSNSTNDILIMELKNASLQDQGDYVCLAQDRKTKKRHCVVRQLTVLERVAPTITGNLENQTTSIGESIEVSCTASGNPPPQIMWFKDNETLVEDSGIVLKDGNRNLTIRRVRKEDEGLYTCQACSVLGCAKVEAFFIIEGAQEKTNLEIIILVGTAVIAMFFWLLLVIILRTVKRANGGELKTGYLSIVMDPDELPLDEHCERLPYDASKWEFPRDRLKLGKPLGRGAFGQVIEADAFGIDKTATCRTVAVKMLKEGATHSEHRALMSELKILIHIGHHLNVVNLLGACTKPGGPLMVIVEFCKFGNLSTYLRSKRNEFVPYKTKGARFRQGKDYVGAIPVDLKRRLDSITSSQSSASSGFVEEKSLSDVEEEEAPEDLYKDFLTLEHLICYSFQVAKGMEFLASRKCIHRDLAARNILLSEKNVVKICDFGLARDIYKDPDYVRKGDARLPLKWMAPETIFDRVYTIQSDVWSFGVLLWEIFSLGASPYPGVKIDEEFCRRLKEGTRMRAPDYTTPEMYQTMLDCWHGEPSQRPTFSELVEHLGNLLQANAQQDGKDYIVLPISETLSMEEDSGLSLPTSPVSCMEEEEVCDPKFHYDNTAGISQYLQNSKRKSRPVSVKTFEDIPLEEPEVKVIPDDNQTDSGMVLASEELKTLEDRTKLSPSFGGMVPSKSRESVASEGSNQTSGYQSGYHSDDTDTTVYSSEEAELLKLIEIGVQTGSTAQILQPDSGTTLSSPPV

MDA-MB-231 [28] = test: Cytotoxicity against human MDA-MB-231 cells assessed as inhibition of cell growth incubated for 48 hrs by MTT assay; type: functional, cell-based; settings: MDA-MB-231, 48 h
HepG2 [29] = test: Cytotoxicity against human HepG2 cells assessed as inhibition of cell growth incubated for 48 hrs by MTT assay; type: functional, cell-based; settings: HepG2, 48 h
A549 [30] = test: Antiproliferative activity against human A549 cells relative to control; type: functional
HCT-8 = test: Anticancer activity against human HCT-8 cells at 5 microg/ml relative to control; type: functional; settings: dose 5 µg/ml
MDA-MB-231 [31] = test: Antiproliferative activity against human MDA-MB-231 cell line assessed as cell growth inhibition by MTT assay; type: functional, cell-based
HeLa [32] = test: Antiproliferative activity against human HeLa cells assessed as cell growth inhibition by MTT assay; type: functional, cell-based
MDA-MB-231 [33] = test: Antiproliferative activity against human MDA-MB-231 cells assessed as reduction in cell growth after 72 hrs; type: functional, cell-based; settings: MDA-MB-231, 72 h
HeLa [34] = test: Antiproliferative activity against human HeLa cells assessed as reduction in cell growth after 72 hrs; type: functional, cell-based
[35] = Anticancer activity against human PBMC cells; type: functional, cell-based
NCI-H226 = test: Cytotoxicity against human NCI-H226 cells; type: functional
NCI-H460 [36] = test: Cytotoxicity against human NCI-H460 cells; type: functional, cell-based
HCC 2998 = test: Cytotoxicity against human HCC 2998 cells; type: functional
IGROV-1 = test: Cytotoxicity against human IGROV-1 cells; type: functional
OVCAR-4 = test: Cytotoxicity against human OVCAR-4 cells; type: functional
OVCAR-5 = test: Cytotoxicity against human OVCAR-5 cells; type: functional
Cytochrome P450 = test: Inhibition of CYP450 in human liver microsomes; type: ADME, Microsome

Structure (SMILES): O=S(=O)(Nc1ccc(-c2csc(N/N=C/c3ccc(N(CCCl)CCCl)cc3)n2)cc1)c1ccc(C(F)(F)F)cc1
- IC50 (MV4-11 [1]): 2170 nM
- IC50 (HCT-116 [2]): 3.02 µg/mL (≈ 4.7 µM)
- IC50 (MCF7 [3]): 3.02 µg/mL (≈ 4.7 µM)

- IC50 (SW-620): 4.3 nM
- IC50 (A549 [5]): 44 nM
- IC50 (HepG2 [6]): 48 nM
- IC50 (A-431): 20 nM
Structure (SMILES): O=C(CCl)Nc1ccc2nc(SCC(=O)Nc3ccc(Br)cn3)sc2c1
- IC50 [4]: 1.2 nM

Structure (SMILES): C/C(=N/NC(=O)c1sc(=S)n(-c2ccccc2)c1N)c1cccnc1
- GI50 (MCF7 [7]): 42.8 nM
- GI50 (NCI-H460 [8]): 94 nM
- GI50 (SF-268): 94 nM

Structure (SMILES): O=S(=O)(Nc1ccc(-c2csc(N/N=C/c3ccc(N(CCCl)CCCl)cc3)n2)cc1)c1c(F)c(F)c(F)c(F)c1F
- IC50 (HCT-116 [9]): 3.02 µg/mL (≈ 4.54 µM)
- IC50 (MV4-11 [1]): 2170 nM
- IC50 (HCT-116 [2]): 3.02 µg/mL (≈ 4.54 µM)
- IC50 (MV4-11 [10]): 2.17 µg/mL (≈ 3.27 µM)
- IC50 (MCF7 [3]): 3.42 µg/mL (≈ 5.15 µM)
- IC50 (BALB/3T3): 3.2 µg/mL (≈ 4.82 µM)

- IC50 (HCT-116 [11]): 390 nM
- GI50 (A549 [12]): 1460 nM
Structure (SMILES): CCCCCCCC(=O)SCC/C=C/[C@@H]1CC(=O)NCc2nc(cs2)C2=N[C@@](C)(CS2)C(=O)N[C@@H](c2ccc(O)cc2)C(=O)O1
- GI50 (HEK293): > 100000 nM
- GI50 [13]: > 100000 nM

- IC50 (A549 [14]): 860 nM
Structure (SMILES): COc1ccc(-c2csc(Nc3ccc(OC)cc3OC)n2)cc1

- IC50 (Tubulin): 1000 nM
Structure (SMILES): COc1ccc(C2SC(N)=NC2c2cc(OC)c(OC)c(OC)c2)cc1N (centres undefined)
- IC50 (Colon 26 [15]): 57.5 nM
- Activity (Colon 26 [16]): 75%

- IC50 (HepG2 [17]): 43000 nM
Structure (SMILES): Cc1ccc(C2NC(=S)Nc3nc(Nc4ccc(S(N)(=O)=O)cc4)sc32)cc1 (centres undefined)

Structure (SMILES): CC(=O)Nc1nc2ccc(NS(=O)(=O)c3ccc(C4CCCCC4)cc3)cc2s1
- IC50 (MCF7 [18]): 36000 nM
- IC50 (MG-63): 34000 nM
- IC50 (HeLa [19]): 44000 nM

Structure (SMILES): C/C(=N/Nc1nc(-c2cc3ccccc3oc2=O)cs1)c1cc2ccccc2oc1=O
- Activity [20]: 50%

Structure (SMILES): COC(=O)Nc1nc2cc(C(=O)c3cccs3)ccc2[nH]1 [NOCODAZOLE]
- IC50 (A549 [21]): 1810 nM

- IC50 [26]: 8280 nM
Structure (SMILES): O=C(Nn1c(-c2ccc(Br)cc2)cs/c1=N\c1ccc([N+](=O)[O-])cc1)c1ccc(Cl)cc1
- IC50 (MCF7 [22]): 5370 nM
- IC50 (MDA-MB-231 [23]): 5370 nM
- IC50 (HCT-116 [24]): 5370 nM
- IC50 (HeLa [25]): 5370 nM

- inhibition [27]: 5.72%
Structure (SMILES): COc1ccc(CN2CCN(c3ccc(NC(=O)Cc4csc5nc(-c6ccc(Cl)cc6)cn45)cn3)CC2)cc1
- IC50 (MDA-MB-231 [28]): 1400 nM
- IC50 (HepG2 [29]): 22600 nM

Structure (SMILES): Cc1cc(Cl)ccc1NC(=O)c1sc(-c2ccccc2Cl)nc1C(F)(F)F
- Activity (A549 [30]): 48%
- Activity (HCT-8): 40%

- IC50 (MDA-MB-231 [31]): 3.92 µg/mL (≈ 18 µM)
- IC50 (HeLa [32]): 11.4 µg/mL (≈ 52.5 µM)
- IC50 (MDA-MB-231 [33]): 3.92 µg/mL (≈ 18 µM)
- IC50 (HeLa [34]): 11.4 µg/mL (≈ 52.5 µM)
Structure (SMILES): Cc1csc(N/N=C/c2ccccc2)n1

- IC50 [35]: > 30000 nM
Structure (SMILES): Clc1ccc(-c2csc(N/N=C/c3ccccn3)n2)cc1

Structure (SMILES): Cc1cc(-c2nc3cc(F)ccc3s2)ccc1N
- GI50 (NCI-H226): < 10 nM
- GI50 (NCI-H460 [36]): < 10 nM
- GI50 (HCC 2998): < 10 nM
- GI50 (IGROV-1): < 10 nM
- GI50 (OVCAR-4): < 100 nM
- GI50 (OVCAR-5): < 100 nM
- GI50 (MCF7 [18]): < 100 nM

- inhibition (INH) (Cytochrome P450): 72.1%
Structure (SMILES): Cc1ncc(C2=CCC3C4CC=C5CC(O)CCC5(C)C4CCC23C)s1 (centres undefined)
